Experimental data from patent US7368434B2, “Compounds useful for the inhibition of ALDH” (The Endowment for Research in Human Biology, Inc., priority 2002, dated 2008).
“And” between values parts separate entries of the source, which are not always exact repeats. Equal entries are not always repeated. Where two headings read alike, the source gives them in different places. Values belong to the molecule of their own block, whether it stands above or below them.

Legend:
[1] = test system: MAO; experiment: MAO activity assay (membrane fraction of hamster liver mitochondria lysate); assay type: biochemical; conditions: for IC50: read-out: MAO inhibition IC50
Method: (§1) Several of the synthesized compounds were tested for MAO and ALDH-2 suppression activity. The membrane and supernatant fractions of the lysate of a gradient purified hamster liver mitochondria preparation were used as sources of MAO and ALDH-2, respectively. ALDH-2 and MAO activity assays were performed according to established procedures (Rooke et al. (2000) J. Med. Chem. 43:4169).

[2] = test system: golden hamsters; experiment: Ethanol drinking experiments, two-bottle choice; assay type: in vivo; conditions: 0.07 mmol/day/hamster for 5 consecutive days
Method: Effects of the newly synthesized analogs on hamster ethanol intake were determined according to the method described below. Animals were male adult golden hamsters (outbred, Lakeview Lak: LVG[SYR]), purchased from Charles River Laboratories, Wilmington, Mass. 01887 or Harlan Sprague Dawley, Inc., Indianapolis, Ind. 46229. Upon arrival, hamsters were housed in a room maintained at 23° C., 35-45% humidity, with a 12/12 hr light/dark cycle (light on 0600-1800 hr), ad libitum access to Purina Chow (5001) and a 15% v/v ethanol solution. After a week, each hamster was transferred to an individual stainless steel cage (26×18×17.5 cm). Two 50 ml drinking bottles, one containing water and the other a 15% ethanol solution, were provided continuously. The bottles were placed in holders equipped with tilted platforms which direct spillage to tubes placed outside of the cages. The positions of the two drinking bottles on each cage were altered daily to prevent development of positional preference. Fluid intake was measured at 0900 hr each day. Hamsters that drank significant (>8 ml/day) and consistent (daily variance <±20%) amounts of ethanol solution were selected for testing. To establish baseline ethanol and water intake, 1 ml sterile saline was administered daily to each hamster between 1500-1600 hr for 6 days (saline control period, Day 1 to Day 6). A daily dose of 0.07 mmol of test compound was then administered for 5 consecutive days (treatment period, Day 7 to Day 11). After the last dose, ethanol and water intake were monitored for another 6 days (post treatment period, Day 12 to Day 17). […] At an equivalent dose, daidzin suppressed ethanol intake by about 55% (Table 1).

[3] = biological target: T1, ALDH-2 (Mesocricetus auratus, UniProt P81178); experiment: ALDH-2 activity assay (supernatant of hamster liver mitochondria lysate); assay type: biochemical; conditions: for IC50: read-out: ALDH-2 inhibition IC50
T1 construct: membrane and supernatant fractions of the lysate of a gradient purified hamster liver mitochondria preparation; from tissue; host or cells: hamster liver mitochondria, supernatant fraction of the lysate
T1 sequence (P81178 20-519): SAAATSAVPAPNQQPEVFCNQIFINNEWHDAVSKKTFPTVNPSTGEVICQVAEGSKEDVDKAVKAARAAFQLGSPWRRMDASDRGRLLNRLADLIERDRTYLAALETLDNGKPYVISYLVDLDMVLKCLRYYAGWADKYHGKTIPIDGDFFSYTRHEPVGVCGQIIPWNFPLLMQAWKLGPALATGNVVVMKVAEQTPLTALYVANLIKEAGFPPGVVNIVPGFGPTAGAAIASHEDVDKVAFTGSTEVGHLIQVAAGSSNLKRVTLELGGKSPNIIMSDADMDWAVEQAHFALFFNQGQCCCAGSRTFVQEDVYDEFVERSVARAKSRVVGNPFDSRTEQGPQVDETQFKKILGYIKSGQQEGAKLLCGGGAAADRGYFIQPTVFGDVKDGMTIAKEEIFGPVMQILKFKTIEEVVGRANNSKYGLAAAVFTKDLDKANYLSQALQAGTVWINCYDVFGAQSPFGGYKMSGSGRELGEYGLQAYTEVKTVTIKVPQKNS
Method: as §1

[4] = test system: 5-HT metabolism in brain slices; experiment: 5-HT metabolism in rat brain slices; assay type: cell-based
Description: (§2) The effects of daidzin on monoamine metabolism were studied in hamster and rat liver and brain using tissue slices using 5-HT as the substrate. The effects of ethanol drinking on 5-HT metabolism in hamster liver and brain were examined. Freshly removed tissues were cut into small pieces (about 1 mm cubes) with a tissue-slicer, suspended in ice-cold phosphate buffered saline (PBS) (0.1 g/ml), and forced through a mesh 40 stainless steel screen mounted on a Millipore Swinnex Filter Holder. The minced tissues were allowed to sediment on ice before PBS was removed using a Pasteur pipette. The tissue slices were washed 5 more times each with 10 volumes of ice-cold PBS. After the final wash, tissues were suspended in 1 volume of PBS and dispensed using a micro-pipette with tips of i.d.=2 mm. 5-HT metabolism catalyzed by the tissue slices was assayed in a 1 ml assay medium containing PBS, 1 μM 5-HT, 100:1 tissue slices, and specified concentrations of daidzin or ethanol. Reactions were initiated by the addition of tissues and allowed to proceed for 30 min at 37° C. in a shaking water bath. Reactions were terminated by addition of 0.1 ml ice-cold 1 M HClO4, and 10 mM EDTA. […] Contents of 5-HT, 5-HIAL, 5-HTOL and 5-HIAA in the supernatants were analyzed by HPLC as described before (Rooke et al. (2000) J. Med. Chem. 43:4169).

[5] = test system: 5-HT metabolism in brain slices; experiment: 5-HT metabolism in hamster brain slices; assay type: cell-based
Description: as §2

[6] = test system: Syrian golden hamsters (Meso cricetus auratus); experiment: Oral potency: compound mixed in chow, two-bottle free-choice ethanol intake; assay type: in vivo; conditions: for Ethanol intake reduced by: oral
Method: The oral potency of hexzein (7-O-ω-carboxypentyldaidzein) in reducing ethanol intake in Syrian golden hamsters (Meso cricetus auratus) was examined under a two-bottle free-choice protocol. Hexzein was mixed with Purina rodent meal (5755M) at 0 mg: 1 g (control), 2 mg: 1 g, 4 mg: 1 g, and 5 mg: 1 g ratios and the mixtures were pressed into 1×1×0.5 inch pellets. Food pellets, ethanol solution and water were provided continuously throughout the study and their intake were measured every day at 5 pm. Hexzein given in this manner did reduce ethanol intake. Ethanol intake in hamsters on 2 mg/g, 4 mg/g, and 5 mg/g hexzein-Chow were reduced by 18.3±3.8%, 47.8±7.4% and 56.5±5.4%, respectively.

[7] = Urine [5-HTOL]/[5-HIAA] ratio after daidzin administration; assay type: in vivo; conditions: dose that would suppress hamster ethanol intake by about 50%
[8] = test system: isolated hamster liver mitochondria; conditions: cited from earlier work
[9] = test system: ethanol-preferring Syrian golden hamsters; conditions: cited from earlier work
[10] = test system: rats; conditions: cited from earlier work
[11] = test system: isolated rat liver mitochondria; conditions: cited from earlier work
[12] = test system: 5-HT metabolism in hamster liver slices; experiment: 5-HT metabolism catalyzed by hamster liver slices; assay type: cell-based
Description: (§3) The effects of daidzin on monoamine metabolism were studied in hamster and rat liver and brain using tissue slices using 5-HT as the substrate. The effects of ethanol drinking on 5-HT metabolism in hamster liver and brain were examined. Freshly removed tissues were cut into small pieces (about 1 mm cubes) with a tissue-slicer, suspended in ice-cold phosphate buffered saline (PBS) (0.1 g/ml), and forced through a mesh 40 stainless steel screen mounted on a Millipore Swinnex Filter Holder. The minced tissues were allowed to sediment on ice before PBS was removed using a Pasteur pipette. The tissue slices were washed 5 more times each with 10 volumes of ice-cold PBS. After the final wash, tissues were suspended in 1 volume of PBS and dispensed using a micro-pipette with tips of i.d.=2 mm. 5-HT metabolism catalyzed by the tissue slices was assayed in a 1 ml assay medium containing PBS, 1 μM 5-HT, 100:1 tissue slices, and specified concentrations of daidzin or ethanol. Reactions were initiated by the addition of tissues and allowed to proceed for 30 min at 37° C. in a shaking water bath. Reactions were terminated by addition of 0.1 ml ice-cold 1 M HClO4, and 10 mM EDTA. Samples were kept on ice for 30 min and centrifuged to obtained clear supernatants. Contents of 5-HT, 5-HIAL, 5-HTOL and 5-HIAA in the supernatants were analyzed by HPLC as described before (Rooke et al. (2000) J. Med. Chem. 43:4169).

[13] = Tissue distribution study, liver of hamsters on compound-Chow; assay type: in vivo, hamster
[14] = test system: 5-HT metabolism in rat liver slices; experiment: 5-HT metabolism catalyzed by rat liver slices; assay type: cell-based
Description: as §3

[15] = taken from Fujita et al. (1964); cited from earlier work

IC50 [1]: 12 µM
Molecule: O=c1c(-c2ccc(O)cc2)coc2cc(O)ccc12 [Analog 40]
EtOH intake suppression, % [2]: 22 ± 5%

melting point: 266 to 268 °C
Molecule: O=c1c(-c2ccc(Br)cc2)coc2cc(O)ccc12 [Analog 25, 7-Hydroxy-4′-Bromoisoflavone]

IC50 [1]: 12 µM and > 9 µM
Molecule: Nc1ccc(-c2coc3cc(O)ccc3c2=O)cc1 [Analog 32]

melting point: 103 to 104 °C
Molecule: CCc1ccc2c(=O)c(-c3ccccc3)coc2c1 [Analog 35, 7-Ethylisoflavone]

IC50 [1]: 9 µM
Molecule: Cc1ccc(-c2coc3cc(O)ccc3c2=O)cc1 [Analog 29]

IC50 [1]: 1 µM
Molecule: O=c1c(-c2ccc(Br)cc2)coc2cc(O)ccc12 [Analog 25]

IC50 [3]: 0.14 to 8 µM
Molecule: CC(=O)Oc1ccc2c(=O)c(-c3ccccc3)coc2c1 [Analog 10]

melting point: 257 to 258 °C
Molecule: O=C(O)c1oc2cc(O)ccc2c(=O)c1-c1ccccc1 [Analog 21, 2-Carboxy-7-Hydroxyisoflavone]

IC50 [1]: 1.5 µM
Molecule: O=c1c(-c2ccc(F)cc2)coc2cc(O)ccc12 [Analog 23]

IC50 [3]: 0.14 to 8 µM
Molecule: O=c1c(-c2ccc(O)cc2)coc2cc(OCn3nnc4ccccc43)ccc12 [Analog 18]

IC50 [1]: 8.6 µM
Molecule: O=c1c(-c2ccccc2)coc2cc(O)ccc12 [Analog 1]

melting point: 143 to 144 °C
Molecule: COc1ccc2c(=O)c(-c3ccccc3)coc2c1OC [Analog 34, 7,8-Dimethoxyisoflavone]

The remaining lines, values behind:

Molecule: O=C1c2ccccc2C(=O)N1CCCCOc1ccc2c(=O)c(-c3ccccc3)coc2c1 [Analog 14]
MAO inhibition (in words) [1]: none of the 4′-H series (analogs 3, 5, 7, 9, 12 and 14) had any effect on MAO | EtOH intake suppression, % [2]: 37 ± 3% | IC50 [3]: 0.14 to 8 µM

Molecule: CCO [Ethanol, ethanol]
Effect on 5-HT metabolism (in words) [4]: did not effect 5-HT metabolism | Effect on 5-HT metabolism (in words) [5]: did not effect 5-HT metabolism

Molecule: Daidzin [Analog 42]
Effect on ethanol intake (in words) ([6]; oral in chow, similar manner and equivalent dose range): failed to reduce ethanol intake | urine [5-HTOL]/[5-HIAA] ratio [7]: increased urine [5-HTOL]/[5-HIAA] ratio | Conversion of 5-HT and DA into 5-HIAA and DOPAC [8]: inhibits the conversion of monoamines | Ethanol intake (in words) ([9]; administered orally): does not affect hamster ethanol intake | Ethanol intake (in words) ([9]; ethanol-preferring Syrian golden hamsters): selectively suppress ethanol intake | Effect on 5-HT metabolism (in words) [4]: did not effect 5-HT metabolism | Effect on 5-HT metabolism (in words) [5]: did not effect 5-HT metabolism | Ethanol intake (in words) [10]: selectively suppress ethanol intake | Conversion of 5-HT and DA into 5-HIAA and DOPAC [11]: inhibits the conversion of monoamines | 5-HT depletion [12]: not 5-HT depletion | 5-HTOL formation [12]: increases in the formation of 5-HTOL | 5-HIAA formation ([12]; 1 μM 5-HT, 30 min at 37° C.): inhibited 5-HIAA formation | Concentration found in the liver (in words) ([13]; hamsters on compound-Chow): no daidzin could be detected | EtOH intake suppression, % [2]: about 55% | 5-HT depletion [14]: not 5-HT depletion | 5-HTOL formation [14]: increases in the formation of 5-HTOL | 5-HIAA formation ([14]; 1 μM 5-HT, 30 min at 37° C.): inhibited 5-HIAA formation

Molecule: CCOC(=O)CCCCCOc1ccc2c(=O)c(-c3ccccc3)coc2c1 [Analog 7, 7-O-Ethoxycarbonylpentylisoflavone]
π (hydrophobic constant of the 4′-substituent) [15]: 0.00

Molecule: CCOC(=O)CCCCCOc1ccc2c(=O)c(-c3ccc([N+](=O)[O-])cc3)coc2c1 [Analog 28, 7-O-Ethoxycarbonylpentyl-4′-Nitroisoflavone]
π (hydrophobic constant of the 4′-substituent) [15]: −0.28

Molecule: CCOC(=O)c1oc2cc(O)ccc2c(=O)c1-c1ccccc1 [Analog 20]
ALDH-2 inhibition (in words) [3]: no effect on ALDH-2 activity

Molecule: CCOC(=O)CCCCCOc1ccc2c(=O)c(-c3ccc(C)cc3)coc2c1 [Analog 30, 7-O-Ethoxycarbonylpentyl-4′-Methylisoflavone]
π (hydrophobic constant of the 4′-substituent) [15]: 0.56

Molecule: O=C(O)CCCCCOc1ccc2c(=O)c(-c3ccc(O)cc3)coc2c1 [Hexzein, 7-O-ω-carboxypentyldaidzein]
Ethanol intake reduced by ([6]; 2 mg/g hexzein-Chow): 18.3±3.8% | Ethanol intake reduced by ([6]; 4 mg/g hexzein-Chow): 47.8±7.4% | Ethanol intake reduced by ([6]; 5 mg/g hexzein-Chow): 56.5±5.4% | Concentration found in the liver (in words) ([13]; hamster, in vivo): pharmacologically relevant concentrations | EtOH intake suppression, % [2]: 69 ± 12%

Molecule: COc1ccc2c(=O)c(-c3ccccc3)coc2c1OC [Analog 34]
Potency for MAO inhibition compared with counterpart analogs (in words) [1]: substantially decreased potencies for MAO inhibition | ALDH-2 inhibition (in words) [3]: completely abolished ALDH-2 inhibitory activities

Molecule: CCOC(=O)c1oc2cc(O)ccc2c(=O)c1-c1ccccc1 [Analog 20, 2-Ethoxycarbonyl-7-Hydroxyisoflavone]
melting point: 213 to 214 °C

Molecule: 4′-Bromoisoflavone 7-ω-Ethoxycarbonylpentyl Ether [Analog 26]
π (hydrophobic constant of the 4′-substituent) [15]: 0.86

Molecule: COc1ccc2c(=O)c(-c3ccccc3)coc2c1 [Analog 3, 7-Methoxyisoflavone]
π (hydrophobic constant of the 4′-substituent) [15]: 0.00

Molecule: COc1ccc2c(=O)c(-c3ccc(O)cc3)coc2c1 [Analog 2, 7-Methoxy-4′-Hydroxyisoflavone]
π (hydrophobic constant of the 4′-substituent) [15]: −0.67

Molecule: 7-Ethoxycarbonylpentyl-4′-Aminoisoflavone [Analog 33]
π (hydrophobic constant of the 4′-substituent) [15]: −1.23

Molecule: CCOC(=O)CCCCCOc1ccc2c(=O)c(-c3ccc(F)cc3)coc2c1 [Analog 24, 7-O-Ethoxycarbonylpentyl-4′-Fluoroisoflavone]
π (hydrophobic constant of the 4′-substituent) [15]: 0.14
